Measurements taken from patent US8962660B2 (Bristol-Myers Squibb Company, priority 2013, dated 2015).

Each compound was assayed against T1, human GPR120 (Homo sapiens, UniProt Q5NUL3) (assay: GPR120 pERK AlphaScreen SureFire assay (human)). Settings: CHO cells stably transfected with short form of human GPR120.
T1 construct: expressed in transfected cells; host or cells: CHOA12 cells
T1 sequence (Q5NUL3 1-361): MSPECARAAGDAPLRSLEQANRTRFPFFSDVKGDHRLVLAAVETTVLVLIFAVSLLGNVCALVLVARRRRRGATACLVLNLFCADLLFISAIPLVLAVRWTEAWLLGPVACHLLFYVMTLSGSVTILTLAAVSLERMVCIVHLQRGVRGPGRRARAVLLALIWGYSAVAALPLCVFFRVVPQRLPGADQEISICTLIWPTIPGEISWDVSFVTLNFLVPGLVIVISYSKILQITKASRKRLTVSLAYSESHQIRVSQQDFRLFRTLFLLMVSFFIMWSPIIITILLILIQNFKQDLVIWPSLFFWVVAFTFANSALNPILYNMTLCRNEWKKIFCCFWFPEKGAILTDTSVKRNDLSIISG
Format: cell-based
In short: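 CHOA12 cells stably expressing short-form human GPR120, serum-starved 2 h, were stimulated 7 min at 37 °C with compound (33.33 μM–0.56 nM, 11-point). pERK read by AlphaScreen SureFire; activation normalized to 50 μM linolenic acid and DMSO blank, EC50 by 4-parameter fit.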

Point of comparison: `OCC(O)CCCC12CCC(c3cccc(Oc4ccccc4)c3)(CC1)OC2` (single isomer, unassigned) [Example 59, S-5-(1-(3-Phenoxyphenyl)-2-oxabicyclo[2.2.2]octan-4-yl)pentane-1,2-diol], EC50 0.36 µM. Against it:
- O=C(NCc1ncn[nH]1)[C@@H]1C[C@H]1CCC12CCC(c3cccc(Oc4ccccc4)c3)(CC1)OC2 (single isomer, unassigned) [Example 62, N-((1H-1,2,4-Triazol-5-yl)methyl)-2-(2-(1-(3-phenoxyphenyl)-2-oxabicyclo[2.2.2]octan-4-yl)ethyl) cyclopropanecarboxamide] — 3.4-fold higher, 1.22 µM
- C=C(C)COc1cccc(C23CCC(CCOCC(=O)O)(CC2)CO3)c1 [Example 19, 2-(2-(1-(3-(2-Methylallyloxy)phenyl)-2-oxabicyclo[2.2.2]octan-4-yl)ethoxy)acetic acid] — 5.5-fold higher, 1.98 µM
- Cc1ccc(Oc2cccc(C34CCC(CCOCC(=O)O)(CC3)CO4)c2)cn1 [Example 115, 2-(2-(1-(3-(6-methylpyridin-3-yloxy)phenyl)-2-oxabicyclo[2.2.2]octan-4-yl)ethoxy)acetic acid] — 15-fold higher, 5.56 µM
- O=C(CCCCC12CCC(c3cccc(Oc4ccccc4)c3)(CC1)OC2)NS(=O)(=O)c1ccccc1 [Example 25, 5-(1-(3-Phenoxyphenyl)-2-oxabicyclo[2.2.2]octan-4-yl)-N-(phenylsulfonyl)pentanamide] — 1.6-fold higher, 0.59 µM
- O=C(O)C1CC1CCC12CCC(c3cccc(OC4CCCCO4)c3)(CC1)OC2 (centres unmarked) [Example 61, 2-(2-(1-(3-(Tetrahydro-2H-pyran-2-yloxy)phenyl)-2-oxabicyclo[2.2.2]octan-4-yl)ethyl) cyclopropanecarboxylic acid] — 15-fold higher, 5.23 µM
- O=C(O)COCCC12CCC(c3cccc(Oc4cccc(O)c4)c3)(CC1)OC2 [Example 117, 2-(2-(1-(3-(3-Hydroxyphenoxy)phenyl)-2-oxabicyclo[2.2.2]octan-4-yl)ethoxy)acetic acid] — 14-fold higher, 5.21 µM
- CC(C)COc1cccc(C23CCC(CC[C@@H]4C[C@H]4C(=O)O)(CC2)CO3)c1 (single isomer, unassigned) [Example 66, 2-(2-(1-(3-Isobutoxyphenyl)-2-oxabicyclo[2.2.2]octan-4-yl)ethyl)cyclopropanecarboxylic acid] — 5.8-fold higher, 2.08 µM
- O=C(NCc1ncn[nH]1)[C@H]1C[C@@H]1CCC12CCC(c3cccc(Oc4ccccc4)c3)(CC1)OC2 (single isomer, unassigned) [Example 68, N-((1H-1,2,4-Triazol-5-yl)methyl)-2-(2-(1-(3-phenoxyphenyl)-2-oxabicyclo[2.2.2]octan-4-yl)ethyl)cyclopropanecarboxamide] — 2-fold higher, 0.72 µM
- O=C(O)/C=C/CCC12CCC(c3cccc(Oc4ccccc4)c3)(CC1)OC2 [Example 11, (E)-5-(1-(3-Phenoxyphenyl)-2-oxabicyclo[2.2.2]octan-4-yl)pent-2-enoic acid] — 3.6-fold lower, 0.1 µM
- COc1cccc(Oc2cc(F)cc(C34CCC(CCOCC(=O)O)(CC3)CO4)c2)c1 [Example 82, 2-(2-(1-(3-fluoro-5-(3-methoxyphenoxy)phenyl)-2-oxabicyclo[2.2.2]octan-4-yl)ethoxy)acetic acid] — 2.3-fold higher, 0.81 µM
- N#Cc1cccc(Oc2cccc(C34CCC(CCOCC(=O)O)(CC3)OC4)c2)c1 [Example 107] — 5.2-fold higher, 1.87 µM
- O=C(O)COCCC12CCC(c3cccc(Oc4ccc(Cl)cc4)c3)(CC1)OC2 [Example 40, 2-(2-(1-(3-(4-chlorophenoxy)phenyl)-2-oxabicyclo[2.2.2]octan-4-yl)ethoxy) acetic acid] — within 1.5-fold, 0.3 µM
- O=C(O)[C@@H]1C[C@H]1CCC12CCC(c3cccc(Oc4cccc(O)c4)c3)(CC1)OC2 (single isomer, unassigned) [Example 70, 2-(2-(1-(3-(3-Hydroxyphenoxy)phenyl)-2-oxabicyclo[2.2.2]octan-4-yl)ethyl) cyclopropanecarboxylic acid] — 2.7-fold higher, 0.97 µM
- O=C(O)COCCC12CCC(c3cccc(Oc4ccc(F)c(F)c4)c3)(CC1)OC2 [Example 75, 2-(2-(1-(3-(3,4-difluoro-phenoxy)phenyl)-2-oxabicyclo[2.2.2]octan-4-yl)ethoxy)acetic acid] — within 1.5-fold, 0.4 µM
- Cc1ccc(Oc2cccc(C34CCC(CCOCC(=O)O)(CC3)OC4)c2)cc1 [Example 106] — 1.6-fold higher, 0.58 µM
- O=C(O)COCCC12CCC(c3cc(F)c(F)c(Oc4ccc(F)cc4)c3)(CC1)OC2 [Example 95, 2-(2-(1-(3,4-Difluoro-5-(4-fluorophenoxy)phenyl)-2-oxabicyclo[2.2.2]octan-4-yl)ethoxy) acetic acid] — within 1.5-fold, 0.35 µM
- Cc1cccc(Oc2cccc(C34CCC(CCOCC(=O)O)(CC3)CO4)c2)c1 [Example 43, 2-(2-(1-(3-(m-tolyloxy)phenyl)-2-oxabicyclo [2.2.2]octan-4-yl)ethoxy)acetic acid] — 1.5-fold higher, 0.55 µM
- COc1ccc(Oc2cccc(C34CCC(CCOCC(=O)O)(CC3)CO4)c2)cc1 [Example 42, 2-(2-(1-(3-(4-methoxyphenoxy)phenyl)-2-oxabicyclo [2.2.2]octan-4-yl)ethoxy)acetic acid] — within 1.5-fold, 0.37 µM
- COc1cccc(C23CCC(CCCCC(=O)O)(CC2)CO3)c1 [Example 3, 5-(1-(3-Methoxyphenyl)-2-oxabicyclo[2.2.2]octan-4-yl)pentanoic acid] — 1.8-fold lower, 0.2 µM
- O=C(O)COCCC12CCC(c3cccc(OCC4CCCCC4)c3)(CC1)OC2 [Example 52, 2-(2-(1-(3-(Cyclohexylmethoxy)phenyl)-2-oxabicyclo[2.2.2]octan-4-yl)ethoxy)acetic acid] — 12-fold higher, 4.34 µM
- O=C(O)COCCC12CCC(c3ccc(F)c(Oc4ccccc4)c3)(CC1)OC2 [Example 87, 2-(2-(1-(4-fluoro-3-phenoxyphenyl)-2-oxabicyclo[2.2.2]octan-4-yl)ethoxy)acetic acid] — within 1.5-fold, 0.41 µM
- Cc1cc(Oc2cccc(C34CCC(CCOCC(=O)O)(CC3)OC4)c2)ccc1F [Example 103] — 1.5-fold higher, 0.54 µM
- O=C(O)COCCC12CCC(c3cccc(OS(=O)(=O)C(F)(F)F)c3)(CC1)OC2 [Example 47, 2-(2-(1-(3-(Trifluoromethylsulfonyloxy)phenyl)-2-oxabicyclo[2.2.2]octan-4-yl)ethoxy)acetic acid] — 2.9-fold higher, 1.03 µM
- O=C(O)C1CC1COCC12CCC(c3cccc(Oc4ccccc4)c3)(CC1)OC2 (stereo not drawn) [Example 97, Trans-2-(((1-(3-phenoxyphenyl)-2-oxabicyclo[2.2.2]octan-4-yl)methoxy)methyl) cyclopropane carboxylic acid] — within 1.5-fold, 0.39 µM
- O=C(O)COCCC12CCC(c3cccc(Oc4cccc(F)c4)c3)(CC1)OC2 [Example 45, 2-(2-(1-(3-(3-fluorophenoxy)phenyl)-2-oxabicyclo[2.2.2]octan-4-yl)ethoxy) acetic acid] — within 1.5-fold, 0.28 µM
- CC(C)COc1cccc(C23CCC(CCOCC(=O)O)(CC2)CO3)c1 [Example 9, 2-(2-(1-(3-Isobutoxyphenyl)-2-oxabicyclo[2.2.2]octan-4-yl)ethoxy)acetic acid] — 3.6-fold higher, 1.28 µM
- Cc1ccc(Oc2cccc(C34CCC(CCOCC(=O)O)(CC3)CO4)c2)cc1F [Example 77, 2-(2-(1-(3-(3-fluoro-4-methylphenoxy)phenyl)-2-oxabicyclo[2.2.2]octan-4-yl)ethoxy)acetic acid] — 1.6-fold lower, 0.23 µM
- O=C(O)COCCC12CCC(c3ccc(F)c(Oc4ccc(F)cc4)c3)(CC1)OC2 [Example 88, 2-(2-(1-(4-fluoro-3-(4-fluorophenoxy)phenyl)-2-oxabicyclo[2.2.2]octan-4-yl)ethoxy)acetic acid] — within 1.5-fold, 0.34 µM
